# Results: paper PMC10946790, “A Functional Chemiluminescent Probe for in Vivo Imaging of Natural Killer Cell Activity Against Tumours” (Angewandte Chemie (Weinheim an Der Bergstrasse, Germany), 2021)
# Where a SMILES comes first, the peptide text is derived from it. The star is where a group is joined. AMC = Cc1cc(=O)oc2cc(N*)ccc12
# Biological target: T1, hr‐granzyme B (Homo sapiens, UniProt P10144)
# T1 construct: in the absence and presence of active human recombinant (hr)‐granzyme B
# Assay: Time-course signal-to-noise ratios after reaction with granzyme B
# Type: biochemical
# Conditions: probe 25 μM, hr-granzyme B 20 nM, aqueous buffer, 37 °C, over 30 minutes; mean ± SEM, n=6
# Procedure: In vitro characterisation assays. Enzymatic assays were run in a 384-well format in a PCR opaque microplate (Thermo Scientific). All experiments were performed at least in triplicate. Dilutions and reactions using human GZM B and human neutrophil elastase were prepared in 50 mM Tris-HCl and 100 mM NaCl (pH 7.4). GZM A assays were performed in 25 mM HEPES, 0.1% CHAPS and 10 mM DTT (pH 7.5). Dilutions and incubations with CASP8 and CASP9 were prepared in 50 mM HEPES, 100 mM NaCl, 0.1% Triton X-100, 10 mM DTT, 1 mM EDTA and 10% glycerol (pH 7.4). Any other tested biomolecules were prepared in PBS. Proteolytic activity was determined by calculating the fold change in chemiluminescence signal (or fluorescence signal in the case of Ac - IEPD-AMC) over background signal provided by the corresponding dilution of the probes with the enzyme using a spectrophotometer (Synergy H1 Hybrid Reader, BioTek) at 37°C.
# Unless otherwise stated, probes were utilized at a concentration of 100 μM. Enzyme concentration used: 20 nM (except CASP9, which was used at 200 nM) and all other biomolecules were tested at 100 μM. In the case where an inhibitor was used, the enzyme was pre-incubated for 1 h with the inhibitor (100 µM) before addition of probe 1.
# Cell culture. […]
# T1 sequence (P10144 21-247): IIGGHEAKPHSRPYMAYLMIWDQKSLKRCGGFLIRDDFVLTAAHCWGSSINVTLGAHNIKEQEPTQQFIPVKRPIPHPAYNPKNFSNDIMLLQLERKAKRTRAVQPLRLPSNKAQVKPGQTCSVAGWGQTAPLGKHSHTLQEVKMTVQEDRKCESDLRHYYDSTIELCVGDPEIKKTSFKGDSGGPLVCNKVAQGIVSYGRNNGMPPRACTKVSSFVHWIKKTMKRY
smiles,measurement,value
CC[C@H](C)[C@H](NC(C)=O)C(=O)N[C@@H](CCC(=O)O)C(=O)N1CCC[C@H]1C(=O)N[C@@H](CC(=O)O)C(=O)Nc1ccc2c(C)cc(=O)oc2c1 [Ac‐IEPD‐AMC] (Ac-IEPD-{AMC}),"Signal‐to‐noise (S/N) ratio, fluorescence",under 5
